Experimental data published in patent EP0774458A1, “Substituted benzodicarboxylic acid diguanidines, process for their preparation, and their use as medicament or diagnostic agent” (HOECHST AKTIENGESELLSCHAFT, priority 1995, dated 1997).

Target: T1, Na^+/H^+-Exchangers von Kaninchenerythrocyten (Oryctolagus cuniculus, UniProt P23791)
T1 construct: den Na^+-Influx in die Erythrocyten via Na^+/H^+-Austausch flammenphotometrisch bestimmen zu können; from tissue; host or cells: Erythrocytes in whole blood from the ear arteries of cholesterol-fed White New Zealand rabbits (Ivanovas)
T1 sequence (P23791 whole entry): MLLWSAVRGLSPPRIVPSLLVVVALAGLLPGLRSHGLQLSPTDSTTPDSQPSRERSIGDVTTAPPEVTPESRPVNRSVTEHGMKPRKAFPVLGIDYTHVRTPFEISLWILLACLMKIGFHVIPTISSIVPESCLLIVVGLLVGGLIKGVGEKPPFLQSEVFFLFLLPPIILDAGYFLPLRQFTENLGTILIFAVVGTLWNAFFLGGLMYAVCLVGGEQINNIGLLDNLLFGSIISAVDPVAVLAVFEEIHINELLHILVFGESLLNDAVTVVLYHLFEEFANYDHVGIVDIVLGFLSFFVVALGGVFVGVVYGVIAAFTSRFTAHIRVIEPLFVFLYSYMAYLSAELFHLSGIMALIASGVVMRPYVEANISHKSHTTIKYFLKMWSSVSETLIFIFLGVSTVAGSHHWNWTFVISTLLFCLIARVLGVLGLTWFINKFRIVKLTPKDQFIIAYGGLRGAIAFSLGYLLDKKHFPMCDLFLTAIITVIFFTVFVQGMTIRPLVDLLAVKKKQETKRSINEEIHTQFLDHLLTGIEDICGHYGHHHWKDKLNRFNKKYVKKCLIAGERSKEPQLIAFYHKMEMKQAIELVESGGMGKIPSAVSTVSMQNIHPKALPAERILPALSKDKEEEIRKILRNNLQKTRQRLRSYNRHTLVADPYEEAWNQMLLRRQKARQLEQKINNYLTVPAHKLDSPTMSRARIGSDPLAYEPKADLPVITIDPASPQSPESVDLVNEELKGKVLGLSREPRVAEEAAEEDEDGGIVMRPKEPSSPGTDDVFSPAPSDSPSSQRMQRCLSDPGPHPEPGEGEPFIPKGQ
Experiment: Inhibition of the Na+/H+ exchanger of rabbit erythrocytes (amiloride-sensitive sodium influx, flame photometry)
Type: cell-based, Weiße Neuseeland-Kaninchen
Conditions: Inhibition des Na^+/H^+-Exchangers, hyperosmolares Salz-Sucrose-Medium, pH 7,4, 37°C
Description: Inhibition des Na^+/H^+-Exchangers von Kaninchenerythrocyten Weiße Neuseeland-Kaninchen (Ivanovas) erhielten eine Standard-Diät mit 2 % Cholesterin für sechs Wochen, um den Na^+/H^+-Austausch zu aktivieren und so den Na^+-Influx in die Erythrocyten via Na^+/H^+-Austausch flammenphotometrisch bestimmen zu können. Das Blut wurde den Ohrarterien entnommen und durch 25 IE Kalium-Heparin ungerinnbar gemacht. Ein Teil jeder Probe wurde zur Doppelbestimmung des Hämatokrits durch Zentrifugieren benutzt. Aliquots von jeweils 100 µl dienten zur Messung des Na^+-Ausgangsgehalts der Erythrocyten.
Um den Amilorid-sensitiven Natrium-Influx zu bestimmen, wurden 100 µl jeder Blutprobe in jeweils 5 ml eines hyperosmolaren Salz-Sucrose-Mediums (mmol/l: 140 NaCl, 3 KCl, 150 Sucrose, 0,1 Ouabain, 20 Tris-hydroxymethylaminomethan) bei pH 7,4 und 37°C inkubiert. Die Erythrocyten wurden danach dreimal mit eiskalter MgCl2-Ouabain-Lösung (mmol/l: 112 MgCl2, 0,1 Ouabain) gewaschen und in 2,0 ml destilliertem Wasser hämolysiert. Der intrazelluläre Natriumgehalt wurde flammenphotometrisch bestimmt.
Der Na^+-Nettoinflux wurde aus der Differenz zwischen Natrium-Ausgangswerten und dem Natriumgehalt der Erythrocyten nach Inkubation errechnet. Der Amilorid-hemmbare Natrium-Influx ergab sich aus der Differenz des Natriumgehalts der Erythrocyten nach Inkubation mit und ohne Amilorid 3 x 10-4 mol/l. […]

IC50: 900 µM
SMILES: NC(N)=NC(=O)c1cc(C(=O)N=C(N)N)c(Cl)c(-c2ccccc2)c1 [Beispiel 1, 4-Chlor-5-phenyl-isophthalsäure-diguanidid]
